{"source": "patent US12415939B2", "about": "“Nano-adhesive and surface primer compound and use thereof” (The Regents of the University of California, priority 2015, dated 2025)", "key": {"[1]": {"assay": "Lap shear test of cured PMA resin on primed mica", "conditions": "first value of each pair (mica)", "method": "(§1) 1 wt % primer solution was spread on mica, glass, tooth enamel, or a silicon wafer and incubated for 1 min, followed by thorough washing with methanol (for MDP, P1-P3) or DMSO (for P4) and drying by flowing nitrogen. The surfaces were exposed to a basic aqueous solution (pH 9, using sodium hydroxide), incubated for 1 min, and drying by flowing nitrogen (see FIG. 52). The methacrylic comonomer blend (Bis-GMA, TEGDMA, DMAEMA and CQ) was packed in a gelatin capsule (size #4, 5-mm diameter, Torpac Inc.) and placed up on top of the primer-treated substrates. The comonomer blend was cured (or crosslinked) for 1 min using a portable dental curing lamp (Foshan Liang Ya Dental Co., LY-A180, 420-480 nm, 1200-2000 mW·cm^−2) (see FIG. 53). Uniaxial compression was applied to the capsule at a rate of 0.05 inch min^−1 using a materials testing system (MTS Bionix 200) until the capsules are separated from the substrate. The lap shear fracture measurements were repeated at least 10 times for each condition."}, "[2]": {"assay": "Lap shear test of cured PMA resin on primed silica/glass", "conditions": "second value of each pair (silica)", "method": "as §1"}, "[3]": {"assay": "Lap shear test of cured PMA resin on primed tooth enamel", "parameters": "species or system human", "method": "as §1"}, "[4]": {"assay": "SFA adhesion of cured PMA resin between primer-treated mica surfaces", "method": "Atomically-smooth muscovite mica sheets were freshly cleaved (thickness of 2-5 μm) and attached on another large freshly cleaved mica backing sheet under a laminar flow hood and placed in a desiccator for clean storage. To ensure use of a fresh surface for each experiment, mica was peeled away from the backing sheet and glued on cylindrical disks using an epoxy glue (EPON 1004 F® from Exxon Chemicals). In each experiment, the mica surfaces were treated with one of the primer solutions, as described for the lap shear experiments, and then mounted in the SFA in a cross cylindrical geometry. In contrast to typical SFA experiments, which use an interferometric method to calculate the disk-disk separation distances and thus the interaction forces, in the SFA used here for adhesion testing, the disk separations were directly measured using semiconductor strain-gauged double cantilever springs (k=1000-10000 N/m)(see FIG. 67). After separating the surfaces, 100 […]1 of comonomer blend was injected between the two surfaces. Then, ˜600 mN of load was applied, followed by visible light curing for 1 min using the portable dental curing lamp (see FIG. 54G). Adhesion strength of cured polymer toward the mica was measured by detaching (unloading) two surfaces. All loading and unloading were performed using a coarse micrometer at the velocity of […]. The SFA measurements were repeated at least 5 times for each condition."}, "[5]": {"system": "L929 mammalian fibroblast cells", "assay": "Cell viability assay on surface treated glass (ISO 10993)", "assay_type": "cell-based", "conditions": "primed glass surface, 3 days, trypan blue", "method": "L929 mammalian fibroblast cells were purchased from the Korean Cell Line Bank (Seoul, Korea) and cultured in Roswell Park Memorial Institute (RPMI) 1640 media (Life Technologies) with 10% fetal bovine serum, 25 mM sodium bicarbonate and 1% penicillin-streptomycin. Silane-grafted and Catechol (P3) primed glass slides were prepared by following procedures described in section 6 and 3, respectively. Each glass substrate was placed on the 100π cell culture plate and sterilized by 70% ethanol solution. After equilibrated in phosphate buffered saline (PBS) and media for 5 min each, L929 cells were seeded onto the glass substrates at a density of 1×10^6 cells per plate. Cells were incubated for 3 days in 5% CO2 at 37° C. After 3 days, the substrates were transferred to new culture plates and washed extensively with PBS. Cells were then detached by 0.05% trypsin-EDTA and stained with trypan blue solution to assess cell viability. Living cells are impermeable to the stain, whereas dead cells with compromised membranes turn blue. The number of live cells was counted using a standard hemocytometer. The bare glass slide without any modification served as a control (FIGS. 56A-56B)."}, "[6]": {"assay": "QCM-D adsorption of primers", "assay_type": "physicochemical", "method": "A ‘static cell’ (often called ‘Open Module’) QCM-D (Q-Sense, Biolin Scientific) was employed to quantitatively evaluate the adsorption of each primer onto SiO2 surface using a quartz sensor (QSX 303, Biolin Scientific). Changes in resonance frequency (ΔF) and dissipation (ΔD) of the SiO2 were recorded and used to measure the adsorbed mass and layer viscoelasticity, respectively, of the primer deposited on the sensor. In detail, pure solvent (100 μl) was dropped onto the sensor and equilibrated for ˜20-30 min. Then, 2 wt % primer solution (100 μl) was dropped onto the sensor (this is labeled “Solution Drop-in” in FIG. 51) and equilibrated until the frequency and dissipation signals stabilized. To remove unbound primers, the sensor was rinsed with solvents (this is labeled “Solvent Rinsing” in FIG. 51) and equilibrated until frequency and dissipation signals stabilized.\nMass loss of P3 and P4 during the rinsing was negligible compared to P2 which lost 60% of initial mass, indicating outstanding adsorption efficiency of catechol-containing primers on SiO2 surfaces even compared to mussel foot protein adsorption (˜30% loss of mfp-3s^3). The priming thickness of P4 estimated by QCM-D is ˜3.1 nm which agrees with the average height of AFM images (˜3.5 nm), assuming that QCM-D measures the average thickness of a uniform layer. The smaller average thickness of P4 (˜3.1 nm) compared to the molecular contour length (˜4.8 nm) may be attributed to the flexible alkyl spacer in P4. The possibility of a softer, more flexible layer with P4 is supported by a higher change in dissipation (ΔD) compared to other primers."}, "[7]": {"assay": "AFM height profiles of adsorbed primers", "assay_type": "physicochemical", "method": "Each primer solution (1 wt %) was prepared in methanol (for P1-P3) or DMSO (for P4). The primer solution was drop cast onto a freshly cleaved mica or glass surface, and kept at room temperature for 1 min. Subsequently, the surfaces were thoroughly rinsed with the respective solvents and dried with argon. All images, surface profiles and surfaces roughnesses were collected using an Asylum MFP-3D standard system (Asylum Research, Santa Barbara, CA) using silicon cantilevers (FORTGG-50, Applied NanoStructures, Santa Clara, CA) (FIGS. 48C and 49)."}, "[8]": {"assay": "Surface forces apparatus (SFA) cohesion/adhesion between thin films on mica", "assay_type": "physicochemical", "conditions": "symmetric films adsorbed from 5 mM, DI water, mica", "method": "The interaction between two surfaces can be measured with nano-Newton level force resolution and Angstrom level resolution in the separation distance between the surfaces. The details of the SFA techniques have been describe in a work by Israelachvili et al. In a typical SFA experiment (FIG. 2C), the distance and the force between the surfaces are measured simultaneously. To begin with, the instrument is calibrated at large separation distances. When the two surfaces are not interacting, i.e., they are separated by large distances, the change in the separation between them is equal to the distance through which the motor moves the lower surface towards or away from the upper surface (or the upper surface driven by the piezo-tube moves towards the lower surface). However, once the surfaces are close enough to start interacting with each other, the measured separation distance deviates from the expected separation calibrated when there is no force between the surfaces. This deviation is due to the deflection of the double cantilever spring and is directly proportional to the force acting normally between the two opposing surfaces. Thus the normal force can be measured using Hooke's law, F=kΔx, where k is the spring constant of the double-cantilever spring and Δx=Dactual−Dapplied is the deflection of the spring, determined by taking the difference between the applied change in position of one of the surfaces Dapplied and the actual change in distance measured between the surfaces Dactual. The actual distance, Dactual, between the surfaces can be measured by multiple beam interferometry (MBI) and will be discussed below.\nThe distance between the surfaces, shape of the interface and the refractive index of the media between the surfaces can be accurately determined by Multiple Beam Interferometry (MBI) technique. In this technique, white light is directed through two back-silvered mica surfaces (or uniform and same thickness). As a white light passes between the mica surfaces, it undergoes interference due to the optical trap set up by the back silver on each of these surfaces giving rise to discrete wavelengths of light (FIG. 2C). These wavelengths of light are resolved in a spectrometer creating interference fringes known as ‘fringes of equal chromatic order’ (FECO). Since mica is birefringent, the FECO appears as doublets and termed as β and γ. Alternate fringes are termed as odd and even fringes with odd fringes having nodes at the center and even fringes with anti-nodes in the center. The FECO is then recorded on a camera and analyzed to determine the distance between the surfaces using the following equations: […]\nThe adhesion/cohesion energy of the synthetic zwitterionic molecules was investigated in SFA (SurForce LLC, Santa Barbara, CA). Two molecularly smooth freshly cleaved back silvered mica surfaces glued on cylindrical silica discs of radius of curvature, R˜2 cm, were mounted in the SFA and 50 μL of a colloidal dispersion of the synthetic molecules in DI water were injected between the surfaces at different concentrations (C=0.5-5 mM) and the forces between the thin films of the molecules were measured by Multiple Beam Interferometry (MBI). The adhesion forces between Z-Cat-C10 molecules on various surfaces, e.g., silica and copper, were also measured by AFM (MFP-3D, Asylum research, Goleta, CA) in DI water and ambient conditions, respectively, at room temperature. AFM probes with a silicon dioxide particle (10, 5, and 1 μm, respectively) on a silicon nitride (SN) cantilever-0.6 N m^−1 were purchased from Novascan Technologies, Inc (Ames, IA). Cantilever spring constants were measured for each force run. Images of Z-Cat-C10 coating on silicon wafer and copper plates were visualized in an AFM. […]"}, "[9]": {"assay": "Stability of isolated compound over time (NMR observation)", "assay_type": "physicochemical", "conditions": "after isolation", "method": "Attempts to increase the level of purity by either recrystallization or HPLC were unsuccessful and the compound was used “as is” for further study. It is recommended that extra care is taken to ensure that this compound be protected from atmospheric oxygen, and be used and analyzed immediately after isolation. […] Reaction time=4 days (96 hours) 69% isolated yield."}, "[10]": {"assay": "Contact angle measurements on SAM-modified substrates", "assay_type": "physicochemical", "conditions": "SAM-modified nano-grooved SiO2", "method": "The nano-grooved SiO2 substrates passivated with Z-Cat-Ben or Z-Cat-Ben-F SAMs were prepared with the same procedure described above. For the reference substrate, the pre-cleaned and ultraviolet/ozone-treated (for 10 min) nano-grooved SiO2 substrate was passivated with n-decyltrichlorosilane (Gelest Inc.) in toluene solution (1% by volume) at 80° C. for 20 min in ambient air. Then, the substrate was subsequently sonicated in toluene and rinsed with additional toluene several times. Anhydrous chlorobenzene (50 μL) was used as a droplet dropping on the substrates. All contact angle images were taken at the direction perpendicular to nano-grooves in the substrates using Dataphysics OCA 15EC goniometer."}, "[11]": {"conditions": "n-DTS-modified nano-grooved SiO2, earlier reports; cited from earlier work"}}, "note": "Values joined by “and” are separate entries in the source; they are usually repeats but may differ in a detail not shown here. Identical values can stand only once.", "data": [{"smiles": "C=CC(=O)OCC(O)Cc1ccc(O)c(O)c1", "note": "(stereo not shown) [P3, 3-(3,4-dihydroxyphenyl)-2-hydroxypropyl acrylate]", "values": [{"measurement": "lap shear strength σshear,max", "setting": "[1]", "result": "0.8±0.2", "unit": "MPa"}, {"measurement": "lap shear strength σshear,max", "setting": "[2]", "result": "4.2±0.7", "unit": "MPa"}, {"measurement": "lap shear strength σshear,max", "setting": "[3]", "result": "3.0±0.3", "unit": "MPa"}, {"measurement": "Pad relative to MDP primer", "setting": "[4]", "result": "~8", "unit": "times"}, {"measurement": "Pad relative to Silane primer", "setting": "[4]", "result": "~2", "unit": "times"}, {"measurement": "increase in adhesion vs plain mica (no primer)", "setting": "[4]", "result": "~10", "unit": "fold"}, {"measurement": "adhesion pressure Pad", "setting": "[4]; n=5", "result": "201.5±50.2 kPa and ~200 kPa"}, {"measurement": "contact cytotoxicity", "setting": "[5]", "result": "non-toxicity was confirmed"}, {"measurement": "thickness from QCM-D", "setting": "[6]", "result": "~1.6", "unit": "nm"}, {"measurement": "mass loss during rinsing", "setting": "[6]; of initial mass", "result": "negligible"}, {"measurement": "adsorption seen by AFM", "setting": "[7]; 1 wt.% solution, mica and glass", "result": "densely primed"}, {"measurement": "AFM height", "setting": "[7]; mica", "result": "1-2 nm"}]}, {"smiles": "C[N+](C)(CCCc1ccc(O)c(O)c1)CCOP(=O)([O-])OCCCc1ccc(O)c(O)c1", "note": "[Z-Cat-Cat]", "values": [{"measurement": "cohesion (or adhesion) energy Wc", "setting": "[8]", "result": "8.1±1.3", "unit": "mJ m^−2"}, {"measurement": "stability over time", "setting": "[9]", "result": "highly susceptible to degradation over time"}]}, {"smiles": "CCCCCCCCCC[Si](Cl)(Cl)Cl", "note": "[n-DTS, n-decyltrichlorosilane, reference compound]", "values": [{"measurement": "contact angle θ of chlorobenzene droplet", "setting": "[10]", "result": "≈ 31 °"}, {"measurement": "saturation hole mobilities", "setting": "[11]", "result": "23-58 cm^2 V^−1 s^−1"}]}]}
